Measured values: US10364226B2, “Pyridazinone compounds and uses thereof” (priority 2013, dated 2019)
pEC50, pIC50: −log10 of the molar value.

Columns and labels:
EN PA = EN PA (Influenza A virus, UniProt P15659); experiment: EN PA FRET Inhibition Assay; type: biochemical; details: read-out: Potency
[1] = system: Influenza strain A549 A/WSN/33 (H1N1); experiment: Influenza Antiviral Assay; type: cell-based, Influenza A virus; details: Influenza A virus, A549, 20 h, neuraminidase fluorescence readout, read-out: % Inhibition

With `O=C(O)c1nn(-c2ccccc2S(=O)(=O)c2ccccc2)cc(O)c1=O` [Compound 24] the pIC50 (EN PA) was over 7.00 and the pEC50 [1] was under 4.00.

For `O=C(O)c1nn(-c2ccccc2-c2ccccc2-c2ccccc2)cc(O)c1=O` [Compound 35], the pIC50 (EN PA) was over 7.00 and the pEC50 [1] was over 4.70.

For `O=C(O)c1nn(-c2ccccc2N2CCCC2Cc2ccccc2)cc(O)c1=O` (stereo not drawn) [Compound 203], the pIC50 (EN PA) was 6.00 to 7.00 and the pEC50 [1] was 4.00 to 4.70.

`CC1(C)CCN(c2ccccc2-n2cc(O)c(=O)c(C(=O)O)n2)CC1` [Compound 206] was tested, and the pIC50 (EN PA) was 6.00 to 7.00 and the pEC50 [1] was 4.00 to 4.70.

In the case of `CC(C)C1CCN(c2ccccc2-n2cc(O)c(=O)c(C(=O)O)n2)CC1` [Compound 207], the pIC50 (EN PA) was 6.00 to 7.00 and the pEC50 [1] was 4.00 to 4.70.

Work on `CC1CCCN(c2ccccc2-n2cc(O)c(=O)c(C(=O)O)n2)C1` (stereo not drawn) [Compound 210] yielded a pIC50 (EN PA) of 6.00 to 7.00 and a pEC50 [1] of under 4.00.

In the case of `O=C(O)c1nn(-c2ccccc2N2CCCC(c3ccccc3)C2)cc(O)c1=O` (stereo not drawn) [Compound 211], the pIC50 (EN PA) was 6.00 to 7.00 and the pEC50 [1] was 4.00 to 4.70.

Compound `Cc1ccc(OC(C)C)c(-c2ccccc2-n2cc(O)c(=O)c(C(=O)O)n2)c1` [Compound 314] has a pIC50 (EN PA) of 6.00 to 7.00 and a pEC50 [1] of under 4.00.

With `O=C(O)c1nn(-c2ccccc2-c2ccccc2OC2CCCC2)cc(O)c1=O` [Compound 319] the pIC50 (EN PA) was 6.00 to 7.00 and the pEC50 [1] was over 4.70.

In the case of `O=C(O)c1nn(-c2ccccc2-c2ccc3[nH]ccc3c2)cc(O)c1=O` [Compound 320], the pIC50 (EN PA) was 6.00 to 7.00 and the pEC50 [1] was under 4.00.

In the case of `O=C(O)c1nn(CCc2ccccc2C(F)(F)F)cc(O)c1=O` [Compound 400, 1-(2-(trifluoromethyl)phenethyl)-1,4-dihydro-5-hydroxv-4-oxopyridazine-3-carboxylic acid], the pIC50 (EN PA) was over 7.00 and the pEC50 [1] was under 4.00.

For `O=C(O)c1nn(CCc2ccccc2)cc(O)c1=O` [Compound 401], the pIC50 (EN PA) was 6.00 to 7.00 and the pEC50 [1] was under 4.00.

`O=C(O)c1nn(CCCc2ccccc2)cc(O)c1=O` [Compound 402] gave a pIC50 (EN PA) of 6.00 to 7.00 and a pEC50 [1] of under 4.00.

In the case of `O=C(O)c1nn(Cc2ccccc2-c2ccccc2)cc(O)c1=O` [Compound 403], the pIC50 (EN PA) was over 7.00 and the pEC50 [1] was under 4.00.

`CC(C)(C)OC(=O)n1cc(CCn2cc(O)c(=O)c(C(=O)O)n2)c2ccccc21` [Compound 404] was tested, and the pIC50 (EN PA) was over 7.00 and the pEC50 [1] was under 4.00.

`CCOC(=O)c1nn(CC2(c3cccc(C(F)(F)F)c3)CCCC2)cc(O)c1=O` [Compound 405] was tested, and the pIC50 (EN PA) was at most 6.00 and the pEC50 [1] was over 4.70.

For `O=C(O)c1nn(CC2(c3cccc(C(F)(F)F)c3)CCCC2)cc(O)c1=O` [Compound 406], the pIC50 (EN PA) was over 7.00 and the pEC50 [1] was over 4.70.

Work on `O=C(O)c1nn(CCc2c[nH]c3ccccc23)cc(O)c1=O` [Compound 407] yielded a pIC50 (EN PA) of 6.00 to 7.00 and a pEC50 [1] of under 4.00.

For `CCOC(=O)c1nn(CCc2ccccc2C(F)(F)F)cc(O)c1=O` [Compound 408], the pIC50 (EN PA) was at most 6.00 and the pEC50 [1] was 4.00 to 4.70.

`O=C(O)c1nn(Cc2ccccc2)cc(O)c1=O` [Compound 409] was tested, and the pIC50 (EN PA) was 6.00 to 7.00 and the pEC50 [1] was under 4.00.

Compound `O=C(O)c1nn(CC2(c3ccccc3)CCCC2)cc(O)c1=O` [Compound 410] has a pIC50 (EN PA) of over 7.00 and a pEC50 [1] of over 4.70.

`CCOC(=O)c1nn(CC2(c3ccccc3)CCCC2)cc(O)c1=O` [Compound 411] showed a pIC50 (EN PA) of 6.00 to 7.00 and a pEC50 [1] of over 4.70.

`O=C(O)c1nn(CCc2cccc(C(F)(F)F)c2)cc(O)c1=O` [Compound 412] was tested, and the pIC50 (EN PA) was over 7.00 and the pEC50 [1] was under 4.00.

`Cc1ccc(C(C)(C)Cn2cc(O)c(=O)c(C(=O)O)n2)cc1` [Compound 416] gave a pIC50 (EN PA) of over 7.00 and a pEC50 [1] of 4.00 to 4.70.

`O=C(O)c1nn(CCC2CCCCC2)cc(O)c1=O` [Compound 421] gave a pIC50 (EN PA) of 6.00 to 7.00 and a pEC50 [1] of under 4.00.

For `O=C(O)c1nn(CC2(n3ccc4cccnc43)CCCC2)cc(O)c1=O` [Compound 422], the pIC50 (EN PA) was over 7.00 and the pEC50 [1] was over 4.70.

`O=C(O)c1nn(CCc2cccc3ccccc23)cc(O)c1=O` [Compound 423] gave a pIC50 (EN PA) of 6.00 to 7.00 and a pEC50 [1] of under 4.00.

With `O=C(O)c1nn(CC2(c3cccc(C(F)(F)F)c3)CC2)cc(O)c1=O` [Compound 424] the pIC50 (EN PA) was 6.00 to 7.00 and the pEC50 [1] was 4.00 to 4.70.

With `CCC(NC(=O)c1nn(CC2(c3cccc(C(F)(F)F)c3)CCCC2)cc(O)c1=O)C(F)(F)F` (stereo not drawn) [Compound 500, 5-hydroxy-4-oxo-N-(1,1,1-trifluorobutan-2-yl)-1-((1-(3-(trifluoromethyl)phenyl)cyclopentyl)methyl)-1,4-dihydropyridazine-3-carboxamide] the pIC50 (EN PA) was 6.00 to 7.00 and the pEC50 [1] was over 4.70.

With `CNC(=O)c1nn(-c2ccccc2-c2ccc(CC(C)C)cc2)cc(O)c1=O` [Compound 501] the pIC50 (EN PA) was at most 6.00 and the pEC50 [1] was over 4.70.

For `O=C(c1nn(CC2(c3cccc(C(F)(F)F)c3)CCCC2)cc(O)c1=O)N1CCC(F)(F)C1` [Compound 502], the pIC50 (EN PA) was at most 6.00 and the pEC50 [1] was over 4.70.

In the case of `O=C(NC1(C(F)(F)F)CCCC1)c1nn(CC2(c3cccc(C(F)(F)F)c3)CCCC2)cc(O)c1=O` [Compound 503], the pIC50 (EN PA) was 6.00 to 7.00 and the pEC50 [1] was over 4.70.

In the case of `CN(C)C(=O)c1nn(CC2(c3cccc(C(F)(F)F)c3)CCCC2)cc(O)c1=O` [Compound 504], the pIC50 (EN PA) was at most 6.00 and the pEC50 [1] was 4.00 to 4.70.

With `O=C(NCC(F)(F)F)c1nn(CC2(c3cccc(C(F)(F)F)c3)CCCC2)cc(O)c1=O` [Compound 505] the pIC50 (EN PA) was 6.00 to 7.00 and the pEC50 [1] was over 4.70.

With `CNC(=O)c1nn(CC2(c3cc(C(F)(F)F)cc(C(F)(F)F)c3)CCCC2)cc(O)c1=O` [Compound 506] the pIC50 (EN PA) was 6.00 to 7.00 and the pEC50 [1] was over 4.70.

`O=C(NC1CC1)c1nn(CC2(c3cccc(C(F)(F)F)c3)CCCC2)cc(O)c1=O` [Compound 507] gave a pIC50 (EN PA) of 6.00 to 7.00 and a pEC50 [1] of over 4.70.

`O=C(NCc1ccccc1)c1nn(CC2(c3cccc(C(F)(F)F)c3)CCCC2)cc(O)c1=O` [Compound 509] was tested, and the pIC50 (EN PA) was 6.00 to 7.00 and the pEC50 [1] was over 4.70.

Compound `O=C(NCC1CC1)c1nn(CC2(c3cccc(C(F)(F)F)c3)CCCC2)cc(O)c1=O` [Compound 510] has a pIC50 (EN PA) of 6.00 to 7.00 and a pEC50 [1] of over 4.70.

`CNC(=O)c1nn(CC2(c3cccc(C(F)(F)F)c3)CCCC2)cc(O)c1=O` [Compound 511] showed a pIC50 (EN PA) of 6.00 to 7.00 and a pEC50 [1] of over 4.70.

For `CS(=O)(=O)NC(=O)c1nn(CC2(c3cccc(C(F)(F)F)c3)CCCC2)cc(O)c1=O` [Compound 512], the pIC50 (EN PA) was 6.00 to 7.00 and the pEC50 [1] was over 4.70.

Work on `O=C(NCc1ccc(Cl)c(Cl)c1)c1nn(CC2(c3cccc(C(F)(F)F)c3)CCCC2)cc(O)c1=O` [Compound 513] yielded a pIC50 (EN PA) of 6.00 to 7.00 and a pEC50 [1] of over 4.70.

`O=C(NC1CCCC1)c1nn(CC2(c3cccc(C(F)(F)F)c3)CCCC2)cc(O)c1=O` [Compound 514] showed a pIC50 (EN PA) of 6.00 to 7.00 and a pEC50 [1] of over 4.70.

Compound `O=C(NC1CCC1)c1nn(CC2(c3cccc(C(F)(F)F)c3)CCCC2)cc(O)c1=O` [Compound 515] has a pIC50 (EN PA) of 6.00 to 7.00 and a pEC50 [1] of under 4.00.

`O=C(NC1CCCCC1)c1nn(CC2(c3cccc(C(F)(F)F)c3)CCCC2)cc(O)c1=O` [Compound 516] was tested, and the pIC50 (EN PA) was 6.00 to 7.00 and the pEC50 [1] was over 4.70.

`O=C(Nc1ccccc1)c1nn(CC2(c3cccc(C(F)(F)F)c3)CCCC2)cc(O)c1=O` [Compound 517] showed a pIC50 (EN PA) of 6.00 to 7.00 and a pEC50 [1] of over 4.70.

For `CNC(=O)c1nn(-c2ccccc2-c2ccccc2-c2ccccc2)cc(O)c1=O` [Compound 518], the pIC50 (EN PA) was 6.00 to 7.00 and the pEC50 [1] was over 4.70.

Compound `CNC(=O)c1nn(-c2ccccc2-c2ccccc2C(C)C)cc(O)c1=O` [Compound 519] has a pIC50 (EN PA) of 6.00 to 7.00 and a pEC50 [1] of 4.00 to 4.70.

In the case of `O=C(NCc1ccc(Cl)cc1)c1nn(CC2(c3cccc(C(F)(F)F)c3)CCCC2)cc(O)c1=O` [Compound 523], the pIC50 (EN PA) was 6.00 to 7.00 and the pEC50 [1] was over 4.70.
